system: HT-29 cells; experiment: In vitro assay for protection of HT-29 cells from necroptosis (TNFα/Smac mimetic/Z-VAD-FMK induction, CCK8 readout); format: cell-based; settings: TNFα/Smac mimetic/Z-VAD-FMK for 24 h; inhibition of necroptosis; read-out: HT-29 (EC50)

Compound | EC50 [nM]
C[C@H](NC(=O)c1cn(C)c2ccc(-c3ccn4nc(NC(=O)CN5CCOC[C@@H]5CO)nc4c3)cc12)c1ccc(F)cc1 [Compound 35] | < 1
COCC(=O)Nc1nc2cc(-c3ccc4c(c3)c(C(=O)N[C@H](c3ccc(F)cc3)C(F)F)cn4C)ccn2n1 [Compound 166] | < 1
C[C@H](NC(=O)c1cn(C)c2ccc(-c3ccn4nc(NC(=O)CN5CCOC[C@H]5C)nc4c3)cc12)c1ccc(F)cc1 [Compound 72] | < 1
CCN(CC)CC(=O)Nc1nc2cc(-c3ccc4c(c3)c(C(=O)N[C@@H](C)c3ccc(F)cc3)cn4C)ccn2n1 [Compound 36] | < 1
Cn1cc(C(=O)N2CCOC[C@@H]2c2ccc(F)cc2)c2cc(-c3ccn4nc(NC(=O)C5CC5)nc4c3)ccc21 [Compound 151] | < 1
Cn1cc(C(=O)N2N=CCC2c2ccc(F)cc2)c2cc(-c3ccn4nc(NC(=O)C5CC5)nc4c3)ccc21 (stereo not shown) [Compound 170] | < 1
C[C@H](NC(=O)c1cn(C)c2ccc(-c3ccn4nc(NC(=O)CN5CC(C#N)C5)nc4c3)cc12)c1ccc(F)cc1 [Compound 34] | < 1
Cn1cc(C(=O)N2CC(F)(F)CC2c2ccc(F)cc2)c2cc(-c3ccn4nc(NC(=O)C5CC5)nc4c3)ccc21 (stereo not shown) [Compound 158] | 1000 to 10000
C[C@H](NC(=O)c1cn(C)c2ccc(-c3ccn4nc(NC(=O)Cn5ccnc5)nc4c3)cc12)c1ccc(F)cc1 [Compound 48] | 10 to 100
COC(C)C(=O)Nc1nc2cc(-c3ccc4c(c3)c(C(=O)N[C@@H](CF)c3ccc(F)cc3)cn4C)ccn2n1 (stereo partly shown) [Compound 112] | < 1
C[C@H](NC(=O)c1cn(C)c2ccc(-c3ccn4nc(NC(=O)CN5CCSCC5)nc4c3)cc12)c1ccc(Cl)cc1 [Compound 87] | < 1
C[C@H](NC(=O)c1cn(C)c2ccc(-c3ccn4nc(NC(=O)Cn5cccn5)nc4c3)cc12)c1ccc(F)cc1 [Compound 58] | < 1
Cn1cc(C(=O)N[C@@H](CF)c2cccc(F)c2)c2cc(-c3ccn4nc(NC(=O)[C@H]5CCCO5)nc4c3)ccc21 [Compound 183] | < 1
C[C@H](NC(=O)c1cn(C)c2ccc(-c3ccn4nc(NC(=O)CN5C[C@H](O)CC5=O)nc4c3)cc12)c1ccc(F)cc1 [Compound 4] | 10 to 100
C[C@H](NC(=O)c1cn(C)c2ccc(-c3ccn4nc(NC(=O)CN5CCC[C@H]5C(=O)O)nc4c3)cc12)c1ccc(F)cc1 [Compound 37] | 1 to 10
Cn1cc(C(=O)N2CC(F)(F)CC2c2ccc(F)cc2)c2cc(-c3ccn4nc(NC(=O)N5CCOCC5)nc4c3)ccc21 (stereo not shown) [Compound 160] | < 1
CN(C)CC(=O)Nc1nc2cc(-c3ccc4c(c3)c(C(=O)N[C@H]3CCc5ccc(F)cc53)cn4C)ccn2n1 [Compound 123] | 1 to 10
CC(c1ccc(F)cc1)n1cnnc1-c1cn(C)c2ccc(-c3ccn4nc(NC(=O)C5CCOC5)nc4c3)cc12 (stereo not shown) [Compound 217] | 10 to 100
Cn1cc(C(=O)N[C@@H](CF)c2ccc(F)cc2)c2cc(-c3ccn4nc(NC(=O)C5CCOC5)nc4c3)ccc21 (stereo partly shown) [Compound 109] | 1 to 10
CN(C(=O)c1cn(C)c2ccc(-c3ccn4nc(NC(=O)C5CC5)nc4c3)cc12)[C@H]1CCc2cc(F)ccc21 [Compound 205] | 1 to 10
CC(C(=O)Nc1nn(C)c2ccc(-c3ccn4nc(NC(=O)c5cnn(C)c5)nc4c3)cc12)c1ccc(F)cc1 (stereo not shown) [Compound 181] | 1000 to 10000
COCCn1cc(C(=O)N[C@@H](CF)c2ccc(F)cc2)c2cc(-c3ccn4nc(NC(=O)CC#N)nc4c3)ccc21 [Compound 215] | 10 to 100
C[C@H](NC(=O)c1cn(C)c2ccc(-c3ccn4nc(NC(=O)C5(C(=O)O)CC5)nc4c3)cc12)c1ccc(F)cc1 [Compound 31] | 10 to 100

Compound | EC50 [nM]
CC(C(=O)Nc1cn(C)c2ccc(-c3ccn4nc(NC(=O)C5CC5)nc4c3)cc12)c1ccc(F)cc1 (stereo not shown) [Compound 177] | 10 to 100
COC(C)C(=O)Nc1nc2cc(-c3ccc4c(c3)c(-c3nncn3C(C)c3ccc(F)cc3)cn4C)ccn2n1 (stereo not shown) [Compound 216] | 10 to 100
C[C@H](NC(=O)c1cn(C)c2ccc(-c3ccn4nc(NC(=O)CN5CCC(F)(F)CC5)nc4c3)cc12)c1ccc(Cl)cc1 [Compound 86] | < 1
CC(c1ccc(F)cc1)n1cnc(-c2cn(C)c3ccc(-c4ccn5nc(NC(=O)c6cnn(C)c6)nc5c4)cc23)n1 (stereo not shown) [Compound 208] | 100 to 1000
C[C@H](NC(=O)c1cn(C)c2ccc(-c3ccn4nc(NC(=O)Cn5ccnn5)nc4c3)cc12)c1ccc(F)cc1 [Compound 52] | < 1
C[C@H](NC(=O)c1nn(C)c2ccc(-c3ccn4nc(NC(=O)[C@H]5CCCO5)nc4c3)cc12)c1ccc(F)cc1 [Compound 193] | < 1
Cn1cc(C(=O)N2N=CCC2c2ccc(F)cc2)c2cc(-c3ccn4nc(NC(=O)C5CCOC5)nc4c3)ccc21 (stereo not shown) [Compound 169] | < 1
C[C@H](NC(=O)c1cn(C)c2ccc(-c3ccn4nc(NC(=O)CN5CCOCC5=O)nc4c3)cc12)c1ccc(F)cc1 [Compound 16] | 10 to 100
CCn1cc(C(=O)N[C@@H](CF)c2ccc(F)cc2)c2cc(-c3ccn4nc(NC(=O)N5CCOCC5)nc4c3)ccc21 [Compound 200] | < 1
C[C@H](NC(=O)c1cn(C)c2ccc(-c3ccn4nc(NC(=O)CN5CCOCC5)nc4c3)cc12)c1ccc(Cl)cc1 [Compound 83] | < 1
CC(C(=O)Nc1nc2cc(-c3ccc4c(c3)c(C(=O)N[C@@H](C)c3ccc(F)cc3)cn4C)ccn2n1)N1CC[C@H](O)C1 (stereo partly shown) [Compound 1] | 10 to 100
Cn1cc(C(=O)N[C@@H]2C[C@H]2c2ccc(F)c(F)c2)c2cc(-c3ccn4nc(NC(=O)[C@H]5CCCO5)nc4c3)ccc21 [Compound 184] | 100 to 1000
C[C@H](NC(=O)c1cn(C)c2ccc(-c3ccn4nc(NC(=O)CN5CC[C@H](O)C5)nc4c3)cc12)c1ccc(F)cc1 [Compound 41] | < 1
Cn1cc(C(=O)N2CCC[C@H]2c2ccc(F)cc2)c2cc(-c3ccn4nc(NC(=O)C5CCCO5)nc4c3)ccc21 (stereo partly shown) [Compound 154] | < 1
CO[C@@H](C)C(=O)Nc1nc2cc(-c3ccc4c(c3)c(C(=O)N[C@H](c3ccc(F)cc3)C(F)F)cn4C)ccn2n1 [Compound 165] | < 1
C[C@H](NC(=O)c1cn(C)c2ccc(-c3ccn4nc(NC(=O)C(N)=O)nc4c3)cc12)c1ccc(F)cc1 [Compound 11] | 1 to 10
Cn1cc(C(=O)Nc2nc3cc(-c4ccc5c(c4)c(C(=O)N4CCOC[C@@H]4c4ccc(F)cc4)cn5C)ccn3n2)cn1 [Compound 149] | < 1
CN(C)CC(=O)Nc1nc2cc(-c3ccc4c(c3)c(C(=O)N[C@@H](CF)c3ccc(F)cc3)cn4C)ccn2n1 [Compound 101] | < 1
Cn1cc(C(=O)NC2(c3ccc(F)cc3)COC2)c2cc(-c3ccn4nc(NC(=O)C5CC5)nc4c3)ccc21 [Compound 148] | 10 to 100
C[C@H](NC(=O)c1cn(C)c2ccc(-c3ccn4nc(NC(=O)CN5CCC(F)(F)CC5)nc4c3)cc12)c1ccc(F)cc1 [Compound 47] | < 1
Cn1cc(C(=O)N[C@@H](CF)c2ccc(F)cc2)c2cc(-c3ccn4nc(NC(=O)CCl)nc4c3)ccc21 [Compound 94] | < 1
CC1CN(CC(=O)Nc2nc3cc(-c4ccc5c(c4)c(C(=O)N[C@@H](C)c4ccc(F)cc4)cn5C)ccn3n2)CCO1 (stereo partly shown) [Compound 45] | < 1
C[C@H](NC(=O)c1nn(C)c2ccc(-c3ccn4nc(NC(=O)N5CCOCC5)nc4c3)cc12)c1ccc(F)cc1 [Compound 195] | < 1

— patent EP4782448A1, “SUBSTITUTED PYRIDOTRIAZOLE COMPOUND, AND PREPARATION METHOD THEREFOR AND USE THEREOF” (Origiant Pharmaceutical Co., Ltd., priority 2023, dated 2025)
